This assay concerns HIV-1 LAI envelope single-round infectious reporter virus. As to the kind of experiment: Single-round infectious luciferase reporter virus (HIV-1 LAI envelope) infection of MT2 cells. In kind it is cell-based. The following applies: Human immunodeficiency virus 1, MT2, 72 h. The text has this: • Virus production—Human embryonic Kidney cell line, 293T (HEK 293T), was propagated in Dulbecco's Modified Eagle Medium (Invitrogen, Carlsbad, Calif.) containing 10% fetal bovine serum (FBS, Sigma, St. Louis, Mo.). The human T-cell leukemia cell MT2 (AIDS Research and Reference Reagent Program, Cat. 237) was propagated in RPMI 1640 (Invitrogen, Carlsbad, Calif.) containing 10% fetal bovine serum (FBS, Hyclone, Logan, Utah) • Virus infection—Single-round infectious reporter virus was produced by co-transfecting HEK 293T cells with plasmide expressing the HIV-1 LAI envelope along with a plasmid containing an HIV-1 LAI proviral cDNA with the envelope gene replaced by a firefly luciferase reporter gene (Chen et al., Ref 41). Transfections were performed using lipofectAMINE PLUS reagent as described by the manufacturer (Invitrogen, Carlsbad, Calif.). Experimental Procedure • 1. MT2 cells were plated in black, 384 well plates at a cell density of 5×10^3 cells per well in 25 μl RPMI 1640 containing 10% FBS. • 2. Compound (diluted in dimethylsulfoxide and growth medium) was added to cells at 12.5 μl/well, so that the final assay concentration would be ≦50 nM. • 3. 12.5 μl of single-round infectious reporter virus in Dulbecco's Modified Eagle Medium was added to the plated cells and compound at an approximate multiplicity of infection (MOI) of 0.01, resulting in a final volume of 50 μl per well. • 4. Virus-infected cells were incubated at 37 degrees Celsius in a CO2 incubator and harvested 72 h after infection. • 5. Viral infection was monitored by measuring luciferase expression in the infected cells using a luciferase reporter gene assay kit (Steady-Glo, Promega, Madison, Wis.) as described by the manufacturer. Luciferase activity was then quantified by measuring luminescence using an EnVision Multilabel Plate Readers (PerkinElmer, Waltham, Mass.). • 6. The percent inhibition for each compound was calculated by quantifying the level of luciferase expression in cells infected in the presence of each compound as a percentage of that observed for cells infected in the absence of compound and subtracting such a determined value from 100. • 7. An EC50 provides a method for comparing the antiviral potency of the compounds of this invention. The effective concentration for fifty percent inhibition (EC50) was calculated with the Microsoft Excel Xlfit curve fitting software. For each compound, curves were generated from percent inhibition calculated at 10 different concentrations by using a four parameter logistic model (model 205). Table 1 is the key for the data in Table 2.

[1] abbreviates: read-out: EC50 Group from Table 1.

Like-named read-outs stand apart in the source and are kept apart here.

Consider `N#CC(c1ccccc1)C1CCN(C(=O)C(=O)c2c[nH]c3c(-n4ccnn4)ncc(F)c23)CC1` (centres unmarked) [Compound 1008], for which a half-maximal effect (EC50) was put at 0.2 nM. For the same molecule, the EC50 (commonly the concentration needed to bring the measured effect to its halfway point) under setting [1] was less than 500 nM.

With `Cn1ccnc1C(O)(c1ccccc1)C1CCN(C(=O)C(=O)c2c[nH]c3c(-n4ccnn4)ncc(F)c23)CC1` (centres unmarked) [Compound 2004, 1-(4-fluoro-7-(1H-1,2,3-triazol-1-yl)-1H-pyrrolo[2,3-c]pyridin-3-yl)-2-(4-(hydroxy(1-methyl-1H-imidazol-2-yl)(phenyl)methyl)piperidin-1-yl)ethane-1,2-dione], the EC50 under setting [1] is less than 500 nM.

Consider `COc1ncc(OC)c2c(C(=O)C(=O)N3CCC4(CC3)CC4(C#N)c3ccccc3)c[nH]c12` (centres unmarked) [Compound 2001, 6-(2-(4,7-dimethoxy-1H-pyrrolo[2,3-c]pyridin-3-yl)-2-oxoacetyl)-1-phenyl-6-azaspiro[2.5]octane-1-carbonitrile], for which, under setting [1], the EC50 was less than 500 nM.

As to `Cn1ccnc1C(c1ccccc1)C1CCN(C(=O)C(=O)c2c[nH]c3c(-n4ccnn4)ncc(F)c23)CC1` (centres unmarked) [Compound 2006, 1-(4-fluoro-7-(1H-1,2,3-triazol-1-yl)-1H-pyrrolo[2,3-c]pyridin-3-yl)-2-(4-((1-methyl-1H-imidazol-2-yl)(phenyl)methyl)piperidin-1-yl)ethane-1,2-dione], under setting [1], the concentration for a half-maximal effect (EC50) was less than 500 nM.

`N#CC1(c2ccccc2)CC12CCN(C(=O)C(=O)c1c[nH]c3c(-n4ccnn4)ncc(F)c13)CC2` (centres unmarked) [Compound 2002, 6-(2-(4-fluoro-7-(1H-1,2,3-triazol-1-yl)-1H-pyrrolo[2,3-c]pyridin-3-yl)-2-oxoacetyl)-1-phenyl-6-azaspiro[2.5]octane-1-carbonitrile]: the EC50 under setting [1] is less than 500 nM.

On to `COc1cnc(-n2cnc(C)n2)c2[nH]cc(C(=O)C(=O)N3CCC(C(c4ccccc4)c4nccn4C)CC3)c12` (centres unmarked) [Compound 2007, 1-(4-methoxy-7-(3-methyl-1H-1,2,4-triazol-1-yl)-1H-pyrrolo[2,3-c]pyridin-3-yl)-2-(4-((1-methyl-1H-imidazol-2-yl)(phenyl)methyl)piperidin-1-yl)ethane-1,2-dione], for which the EC50 under setting [1] was less than 500 nM.

For `CC(C)=C(c1ccccc1)C1CCN(C(=O)C(=O)c2c[nH]c3ccccc23)CC1` [Compound 1002], under setting [1], the EC50 is greater than 500 nM.

For the molecule `C/C=C(\c1ccccc1)C1CCN(C(=O)C(=O)c2c[nH]c3ccccc23)CC1` [Compound 1003], the EC50 under setting [1] is greater than 500 nM.

`O=C(C(=O)N1CCC(C(=O)c2ccccc2)CC1)c1c[nH]c2ccccc12` [Compound 1001]: the EC50 worked out at 3490 nM. For the same molecule, the EC50 under setting [1] was greater than 500 nM.

For `C=C(c1ccccc1)C1CCN(C(=O)C(=O)c2c[nH]c3ccccc23)CC1` [Compound 1004], the EC50 under setting [1] was greater than 500 nM.

On to `O=C(C(=O)N1CCC(C(O)(c2ccccc2)c2ccccc2)CC1)c1c[nH]c2c(-n3ccnn3)ncc(F)c12` [Compound 1007], for which the EC50 under setting [1] is less than 500 nM.

Take `O=C(C(=O)N1CCC(Cc2ccccc2)CC1)c1c[nH]c2c(-n3ccnn3)ncc(F)c12` [Compound 1006]: the EC50 under setting [1] was less than 500 nM.

Molecule `COc1cnc(-n2cnc(C)n2)c2[nH]cc(C(=O)C(=O)N3CCC4(CC3)CC4(C#N)c3ccccc3)c12` (centres unmarked) [Compound 2003, 6-(2-(4-methoxy-7-(3-methyl-1H-1,2,4-triazol-1-yl)-1H-pyrrolo[2,3-c]pyridin-3-yl)-2-oxoacetyl)-1-phenyl-6-azaspiro[2.5]octane-1-carbonitrile] came in with an EC50 of 2.52 nM. Under setting [1], the EC50 is less than 500 nM.

Turning to `COc1cnc(-n2cnc(C)n2)c2[nH]cc(C(=O)C(=O)N3CCC(C(O)(c4ccccc4)c4nccn4C)CC3)c12` (centres unmarked) [Compound 2005, 1-(4-(hydroxy(1-methyl-1H-imidazol-2-yl)(phenyl)methyl)piperidin-1-yl)-2-(4-methoxy-7-(3-methyl-1H-1,2,4-triazol-1-yl)-1H-pyrrolo[2,3-c]pyridin-3-yl)ethane-1,2-dione], under setting [1], the EC50 was less than 500 nM.

In turn, `COc1cnc(-n2ccnn2)c2[nH]cc(C(=O)C(=O)N3CCC4(CC3)CC4(c3ccccc3)c3nnc(C)o3)c12` (centres unmarked) [Compound 1005] came in with an EC50 of 0.75 nM. Moreover, under setting [1], the EC50 is less than 500 nM.

Take `COc1cnc(-n2cnc(C)n2)c2[nH]cc(C(=O)C(=O)N3CCC(C(C#N)c4ccccc4)CC3)c12` (centres unmarked) [Compound 1009]: the EC50 under setting [1] is less than 500 nM.
